Measurements: patent US20130137724A1, “PHARMACEUTICAL COMPOSITIONS COMPRISING 7-(1H-IMIDAZOL-4-YLMETHYL)-5,6,7,8-TETRAHYDRO-QUINOLINE FOR RETINAL NEUROPROTECTION” (ALLERGAN, INC., priority 2011, published 2013)

Columns and labels:
α2A-adrenergic receptor = target: T1, α2A-adrenergic receptor (Homo sapiens, UniProt P08913); settings: for Percent of Bmax Decrease: 1 μM compound, 24 hours, HEK 293T cells stably transfected with α2A-adrenergic receptor; for down-regulation of alpha2A receptor / receptor density: binding studies, result in words
T1 sequence (P08913 1-465): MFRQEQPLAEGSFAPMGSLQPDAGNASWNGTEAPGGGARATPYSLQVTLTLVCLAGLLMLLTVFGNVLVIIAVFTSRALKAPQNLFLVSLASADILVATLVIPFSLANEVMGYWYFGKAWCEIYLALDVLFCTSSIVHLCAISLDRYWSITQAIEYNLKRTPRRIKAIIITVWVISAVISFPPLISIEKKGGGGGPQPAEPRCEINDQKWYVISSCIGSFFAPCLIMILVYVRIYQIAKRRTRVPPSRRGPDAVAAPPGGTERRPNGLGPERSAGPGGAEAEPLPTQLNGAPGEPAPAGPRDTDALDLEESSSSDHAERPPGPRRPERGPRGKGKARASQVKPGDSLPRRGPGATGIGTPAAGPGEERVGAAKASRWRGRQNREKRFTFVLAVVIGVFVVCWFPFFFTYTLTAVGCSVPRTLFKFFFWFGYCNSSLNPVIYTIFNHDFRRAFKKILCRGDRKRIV
Description: Human embryonic kidney (HEK) 293T cells stably transfected with the α2A-adrenergic receptor were grown to 50-60% confluency on T-175 culture flasks in DMEM (Gibco, cat. #11995), 10% FBS (Gibco, cat. #16140), 0.25 ug/mL puromycin (Sigma, cat. #P-8833), and 1% antibiotic-antimycotic (Gibco, cat. #15240) maintained at 37° C. and 5% CO2. […] The cells were then washed with room temperature Dulbecco's phosphate buffered saline (DPBS; Gibco, cat. #14190).
Cells were harvested with 4° C. Tris-EDTA buffer [50 mM Tris-HCl, 5 mM EDTA; pH 7.4] and centrifuged at 5,000×g for 5 minutes at 4° C. Membrane preparation was conducted by resuspending the cell pellets in 4° C. Tris-EDTA buffer and lysed with a Polytron disrupter two times (setting 7, 5 seconds each). The lysed suspension was then centrifuged at ˜35,000×g for 32 minutes at 4° C. After decanting the supernatant, the pelleted material was further lysed in 4° C. Tris buffer [50 mM Tris-HCl; pH 8.0] using the Polytron disrupter (setting 4, 5 seconds). Membranes were then aliquoted, pelleted at ˜37,000×g for 32 minutes at 4° C., and stored at −80° C. until use.
Membranes were thawed and resuspended using a Polytron disrupter in 4° C. HBSS-HEPES buffer [1 part 1M HEPES: 5 parts 10× Hank's Balanced Salt Solution: 43.8 parts H2O; pH 7.4 with KOH] and quantified via Bradford assay. The quantified protein was further diluted with HBSS-HEPES buffer to achieve a 100 μg/mL concentration. Membrane suspension was plated in a 96-well plate at 200 μLs/well ±10 μM phentolamine HCl (Sigma, cat. #P-7547) and [Methyl-^3H] Rauwolscine (15 nM to 0.05 nM; PerkinElmer, cat. #NET722250UC). The assay plate was slowly shaken and incubated at 25° C. for ninety minutes. Immediately following the above incubation, the assays were terminated by vacuum filtration over GF/B filters. Filters were then washed with 4° C. HBSS-HEPES buffer. The incorporated [Methyl-^3H] Rauwolscine was determined using a Microbeta 1450B liquid scintillation counter after the plates had dried overnight.

[1] = tested on: blue light induced retinal damage; test: Blue light model of retinal degeneration, retinal thickness by OCT; assay type: in vivo, rat; settings: subcutaneous pump 0.3 and 1 mg/kg/day from two days before exposure, OCT 7 days post blue light, Sprague-Dawley rats
Description: Twenty 4-month old male Sprague-Dawley rats (body weight 470-550 g) were used in this study. The animals were exposed to room light on a 12 hour light/12 hour dark cycle before the experiment. All animals were dark adapted overnight (16-20 hours) before blue light. Under the intensity of 6100-6500 lux, rats were exposed to blue light for 4 hours. After the blue light, rats were placed in the dark for another 3 days before returning to normal 12 hour light/12 hour dark. Ocular Coherence Tomography (OCT) measurement was performed at 7 days post blue light exposure.
Histology studies have shown that the reduction in retinal thickness is attributable to loss of photoreceptors.

[2] = tested on: visual acuity in normal DB rabbits; test: Visual enhancement model, spatial sweep visual evoked potential (sVEP) acuity; assay type: in vivo, rabbit; settings: intravenous route, 10-30 minutes post-dose
Description: Spatial sweep visual evoked potential (sVEP) acuity. Spatial sVEP acuity was assessed with PowerDiva software version 1.8. Recordings were made bilaterally in conscious animals.

alpha 2A receptor = target: T2, alpha 2A receptor (Homo sapiens, UniProt P08913); test: biochemical
T2 sequence (P08913 1-465): T1 sequence (P08913 1-465)
Description: The extent of binding is a measure of receptor activation. […] Membranes were thawed and resuspended using a Polytron disrupter in 4° C. membrane buffer and quantified via Bradford assay. […] The above mixture was then aliquoted, 50 μL/well, in a 96 well plate, combined with an equal volume of test compound dissolved in assay buffer [50 mM Tris-HCl, 100 mM NaCl, 5 mM MgCl2, 1 mM EDTA, and 1 mM DTT, pH 7.4 and 4° C.], and allowed to incubate for 5 minutes. […] Assays were terminated by vacuum filtration over GF/B filters blocked with 0.5% BSA.

[3] = Drug level in the retina with continuous subcutaneous pump dosing; assay type: in vivo, rat; settings: 0.3 mg/kg/day and 1 mg/kg/day, rats

Row | SMILES | Percent of Bmax Decrease (α2A-adrenergic receptor) | down-regulation of alpha2A receptor / receptor density (α2A-adrenergic receptor) | damage caused by blue light (retinal thickness by OCT) [1] | visual acuity (sVEP) [2] | EC50 (alpha 2A receptor) | Relative Efficacy (alpha 2A receptor; efficacy relative to the full agonist brimonidine) | drug levels in the retina [3]
1 | c1cnc2c(c1)CC[C@H](Cc1c[nH]cn1)C2 [(S)-(+)-7-(1H-Imidazol-4-ylmethyl)-5,6,7,8-tetrahydro-quinoline] | −25% | induces very little down-regulation of alpha2A receptor | significantly reduced the damage caused by blue light | enhances visual acuity | < 1 nM | 0.6 | 1.3 ng/g
2 | Brc1c(N=C2NCCN2)ccc2nccnc12 [Brimonidine, (5-bromo-quinoxalin-6-yl)-imidazolidin-2-ylidene-amine, reference compound] | −45% | induced a strong reduction in the alpha 2A receptor density |  |  |  |  | 
